The values that follow are results of earlier work, collected in patent publication EP4635500A1, “THERAPEUTIC AGENT FOR BACTERIAL INFECTION” (Sumitomo Pharma Co., Ltd., priority 2022, dated 2024).

The structures appear in SMILES notation.

For the data set the following is noted: cited from earlier work.

As for `C[C@@H](O)[C@H]1C(=O)N2C(C(=O)O)=C(S[C@@H]3CN[C@H](C(=O)N(C)C)C3)[C@H](C)[C@H]12` [MEPM, meropenem], the “human protein binding rate” value (Reference 2) is 2%. In addition, where the note is “human, 2 g intravenously for 3 hours every 8 hours, Reference 3”, the Cmax (commonly the maximum level reached in the sampled fluid or tissue) was 46000 ng/mL.
